According to US20240239752A1, “BICYCLIC HETEROAROMATIC INHIBITORS OF KLK5” (BioCryst Pharmaceuticals, Inc., priority 2021, published 2024):

These compounds were tested against T1, recombinant human KLK5 (Homo sapiens, UniProt Q9Y337) (assay: Kallikrein (KLK) 5 enzymatic assay (Boc-VPR-AMC fluorogenic substrate)). Conditions: recombinant human KLK5 0.1 μg/well, Boc-VPR-AMC 100 μM, pH 7.5, room temperature, 1% DMSO; tested a minimum of three times.
T1 construct: purchased Novoprotein or R&D Systems C415 or 1108-SE
T1 sequence (Q9Y337 23-293): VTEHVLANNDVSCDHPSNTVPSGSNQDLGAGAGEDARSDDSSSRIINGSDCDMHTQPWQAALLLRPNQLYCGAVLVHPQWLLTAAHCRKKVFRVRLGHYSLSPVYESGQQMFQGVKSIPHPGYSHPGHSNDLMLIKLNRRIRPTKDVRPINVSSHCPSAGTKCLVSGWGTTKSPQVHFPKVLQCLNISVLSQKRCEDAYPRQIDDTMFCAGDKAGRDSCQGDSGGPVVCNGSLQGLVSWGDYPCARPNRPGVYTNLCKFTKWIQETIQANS
Type: biochemical
Summary of the method: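 Recombinant human KLK5 (0.1 μg/well) was preincubated with compound at room temperature in 0.1 M NaH2PO4, pH 7.5, 1% DMSO, then started with 100 μM Boc-VPR-AMC. The rate was followed at 380/460 nm, and IC50 came from percent inhibition relative to enzyme alone, with at least three runs.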

IC50, < 1 µM:
COC(=O)N1CCC2(CC1)CC(Oc1ccccc1CC(=O)O)c1cc(-c3cccc4c(N)nccc34)ccc12 (centres unmarked) [Compound 371b, 2-(2-((5-(1-aminoisoquinolin-5-yl)-1′-(methoxycarbonyl)-2,3-dihydrospiro[indene-1,4′-piperidin]-3-yl)oxy)phenyl)acetic acid]
CCOC(=O)N1CCC2(CC1)CC(Oc1ccccc1CC(=O)O)c1cc(-c3cccc4c(N)nccc34)ccc12 (centres unmarked) [Compound 372b, 2-(2-((5-(1-aminoisoquinolin-5-yl)-1′-(ethoxycarbonyl)-2,3-dihydrospiro[indene-1,4′-piperidin]-3-yl)oxy)phenyl)acetic acid]
CC(C)OC(=O)N1CCC2(CC1)CC(Oc1ccccc1CC(=O)O)c1cc(-c3ccc4ccnc(N)c4c3)ccc12 (centres unmarked) [Compound 374c, 2-(2-((5-(1-aminoisoquinolin-7-yl)-1′-(isopropoxycarbonyl)-2,3-dihydrospiro[indene-1,4′-piperidin]-3-yl)oxy)phenyl)acetic acid]
CC(C)OC(=O)N1CCC2(CC1)CC(Oc1ccccc1CC(=O)O)c1cc(-c3cccc4c(N)nccc34)ccc12 (centres unmarked) [Compound 375b, 2-(2-((5-(1-aminoisoquinolin-5-yl)-1′-(isopropoxycarbonyl)-2,3-dihydrospiro[indene-1,4′-piperidin]-3-yl)oxy)phenyl)acetic acid]
Nc1nccc2c(-c3ccc4c(c3)C(Oc3ccccc3CC(=O)O)CC43CCCCC3)cccc12 (centres unmarked) [Compound 376f, 2-(2-((5′-(1-aminoisoquinolin-5-yl)-2′,3′-dihydrospiro[cyclohexane-1,1′-inden]-3′-yl)oxy)phenyl)acetic acid]
Cc1cccc(OC2CC3(CCCCC3)c3ccc(-c4cccc5c(N)nccc45)cc32)c1CC(=O)O (centres unmarked) [Compound 377c, 2-(2-((5′-(1-aminoisoquinolin-5-yl)-2′,3′-dihydrospiro[cyclohexane-1,1′-inden]-3′-yl)oxy)-6-methylphenyl)acetic acid]
Cc1cccc(OC2CC3(CCCCC3)c3ccc(-c4ccc5ccnc(N)c5c4)cc32)c1CC(=O)O (centres unmarked) [Compound 378b, 2-(2-((5′-(1-aminoisoquinolin-7-yl)-2′,3′-dihydrospiro[cyclohexane-1,1′-inden]-3′-yl)oxy)-6-methylphenyl)acetic acid]
COC(=O)N1CCC2(CC1)CC(Oc1cccc(C)c1CC(=O)O)c1cc(-c3ccc4ccnc(N)c4c3)ccc12 (centres unmarked) [Compound 381e, 2-(2-((5-(1-aminoisoquinolin-7-yl)-1′-(methoxycarbonyl)-2,3-dihydrospiro[indene-1,4′-piperidin]-3-yl)oxy)-6-methylphenyl)acetic acid]
COC(=O)N1CCC2(CC1)CC(Oc1cccc(C)c1CC(=O)O)c1cc(-c3cccc4c(N)nccc34)ccc12 (centres unmarked) [Compound 382b, 2-(2-((5-(1-aminoisoquinolin-5-yl)-1′-(methoxycarbonyl)-2,3-dihydrospiro[indene-1,4′-piperidin]-3-yl)oxy)-6-methylphenyl)acetic acid]
Cc1cccc(OC2CC3(CCN(C(=O)OC(C)C)CC3)c3ccc(-c4ccc5ccnc(N)c5c4)cc32)c1CC(=O)O (centres unmarked) [Compound 383c, 2-(2-((5-(1-aminoisoquinolin-7-yl)-1′-(isopropoxycarbonyl)-2,3-dihydrospiro[indene-1,4′-piperidin]-3-yl)oxy)-6-methylphenyl)acetic acid]
Cc1cccc(OC2CC3(CCN(C(=O)OC(C)C)CC3)c3ccc(-c4cccc5c(N)nccc45)cc32)c1CC(=O)O (centres unmarked) [Compound 384b, 2-(2-((5-(1-aminoisoquinolin-5-yl)-1′-(isopropoxycarbonyl)-2,3-dihydrospiro[indene-1,4′-piperidin]-3-yl)oxy)-6-methylphenyl)acetic acid]
CCC(=O)N1CCC2(CC1)CC(Oc1ccccc1CC(=O)O)c1cc(-c3cccc4c(N)nccc34)ccc12 (centres unmarked) [Compound 385c, 2-(2-((5-(1-aminoisoquinolin-5-yl)-1′-propionyl-2,3-dihydrospiro[indene-1,4′-piperidin]-3-yl)oxy)phenyl)acetic acid]
CCC(=O)N1CCC2(CC1)CC(Oc1ccccc1CC(=O)O)c1cc(-c3ccc4ccnc(N)c4c3)ccc12 (centres unmarked) [Compound 386b, 2-(2-((5-(1-aminoisoquinolin-7-yl)-1′-propionyl-2,3-dihydrospiro[indene-1,4′-piperidin]-3-yl)oxy)phenyl)acetic acid]
CCC(=O)N1CCC2(CC1)CC(Oc1cccc(C)c1CC(=O)O)c1cc(-c3cccc4c(N)nccc34)ccc12 (centres unmarked) [Compound 387c, 2-(2-((5-(1-aminoisoquinolin-5-yl)-1′-propionyl-2,3-dihydrospiro[indene-1,4′-piperidin]-3-yl)oxy)-6-methylphenyl)acetic acid]
CCC(=O)N1CCC2(CC1)CC(Oc1cccc(C)c1CC(=O)O)c1cc(-c3ccc4ccnc(N)c4c3)ccc12 (centres unmarked) [Compound 388b, 2-(2-((5-(1-aminoisoquinolin-7-yl)-1′-propionyl-2,3-dihydrospiro[indene-1,4′-piperidin]-3-yl)oxy)-6-methylphenyl)acetic acid]
CC(C)COC(=O)N1CCC2(CC1)CC(Oc1ccccc1CC(=O)O)c1cc(-c3ccc4ccnc(N)c4c3)ccc12 (centres unmarked) [Compound 389c, 2-(2-((5-(1-aminoisoquinolin-7-yl)-1′-(isobutoxycarbonyl)-2,3-dihydrospiro[indene-1,4′-piperidin]-3-yl)oxy)phenyl)acetic acid]
CC(C)COC(=O)N1CCC2(CC1)CC(Oc1ccccc1CC(=O)O)c1cc(-c3cccc4c(N)nccc34)ccc12 (centres unmarked) [Compound 390b, 2-(2-((5-(1-aminoisoquinolin-5-yl)-1′-(isobutoxycarbonyl)-2,3-dihydrospiro[indene-1,4′-piperidin]-3-yl)oxy)phenyl)acetic acid]
Nc1nccc2ccc(-c3ccc4c(c3)C(Oc3ccccc3CC(=O)O)CC43CCCCC3)cc12 (centres unmarked) [Compound 391b, 2-(2-((5′-(1-aminoisoquinolin-7-yl)-2′,3′-dihydrospiro[cyclohexane-1,1′-inden]-3′-yl)oxy)phenyl)acetic acid]
CC(C)(C)OC(=O)N1CCC2(CC1)C[C@H](Oc1ccccc1CC(=O)O)c1cc(-c3cccc4c(N)nccc34)ccc12 [Compound 392f, (S)-2-(2-((5-(1-aminoisoquinolin-5-yl)-1′-(tert-butoxycarbonyl)-2,3-dihydrospiro[indene-1,4′-piperidin]-3-yl)oxy)phenyl)acetic acid]
CC(C)(C)OC(=O)N1CCC2(CC1)C[C@H](Oc1ccccc1CC(=O)O)c1cc(-c3ccc4ccnc(N)c4c3)ccc12 [Compound 393b, (S)-2-(2-((5-(1-aminoisoquinolin-7-yl)-1′-(tert-butoxycarbonyl)-2,3-dihydrospiro[indene-1,4′-piperidin]-3-yl)oxy)phenyl)acetic acid]
CC(C)(C)OC(=O)N1CCC2(CC1)C[C@@H](Oc1ccccc1CC(=O)O)c1cc(-c3cccc4c(N)nccc34)ccc12 [Compound 394e, (R)-2-(2-((5-(1-aminoisoquinolin-5-yl)-1′-(tert-butoxycarbonyl)-2,3-dihydrospiro[indene-1,4′-piperidin]-3-yl)oxy)phenyl)acetic acid]
CC(C)(C)OC(=O)N1CCC2(CC1)C[C@@H](Oc1ccccc1CC(=O)O)c1cc(-c3ccc4ccnc(N)c4c3)ccc12 [Compound 395b, (R)-2-(2-((5-(1-aminoisoquinolin-7-yl)-1′-(tert-butoxycarbonyl)-2,3-dihydrospiro[indene-1,4′-piperidin]-3-yl)oxy)phenyl)acetic acid]
COC(=O)N1CCC2(CC1)C[C@H](Oc1ccccc1CC(=O)O)c1cc(-c3cccc4c(N)nccc34)ccc12 [Compound 396d, (S)-2-(2-((5-(1-aminoisoquinolin-5-yl)-1′-(methoxycarbonyl)-2,3-dihydrospiro[indene-1,4′-piperidin]-3-yl)oxy)phenyl)acetic acid]
COC(=O)N1CCC2(CC1)C[C@H](Oc1ccccc1CC(=O)O)c1cc(-c3ccc4ccnc(N)c4c3)ccc12 [Compound 397b, (S)-2-(2-((5-(1-aminoisoquinolin-7-yl)-1′-(methoxycarbonyl)-2,3-dihydrospiro[indene-1,4′-piperidin]-3-yl)oxy)phenyl)acetic acid]
COC(=O)N1CCC2(CC1)C[C@@H](Oc1ccccc1CC(=O)O)c1cc(-c3cccc4c(N)nccc34)ccc12 [Compound 398d, (R)-2-(2-((5-(1-aminoisoquinolin-5-yl)-1′-(methoxycarbonyl)-2,3-dihydrospiro[indene-1,4′-piperidin]-3-yl)oxy)phenyl)acetic acid]
COC(=O)N1CCC2(CC1)C[C@@H](Oc1ccccc1CC(=O)O)c1cc(-c3ccc4ccnc(N)c4c3)ccc12 [Compound 399b, (R)-2-(2-((5-(1-aminoisoquinolin-7-yl)-1′-(methoxycarbonyl)-2,3-dihydrospiro[indene-1,4′-piperidin]-3-yl)oxy)phenyl)acetic acid]
